Data from BindingDB's records for doi:10.1210/edrv-16-4-427 (University of Pennsylvania, 1995).
pKi: −log10 of the molar value. Peptide text beside a SMILES is read from it.

Key:
[1] = target: Somatostatin receptor type 3 (Homo sapiens, UniProt P32745)
[2] = target: Somatostatin receptor type 2 (Homo sapiens, UniProt P30874)
[3] = target: Somatostatin receptor type 4 (Homo sapiens, UniProt P31391)
Somatostatin receptor type 4, sequence (P31391 whole entry): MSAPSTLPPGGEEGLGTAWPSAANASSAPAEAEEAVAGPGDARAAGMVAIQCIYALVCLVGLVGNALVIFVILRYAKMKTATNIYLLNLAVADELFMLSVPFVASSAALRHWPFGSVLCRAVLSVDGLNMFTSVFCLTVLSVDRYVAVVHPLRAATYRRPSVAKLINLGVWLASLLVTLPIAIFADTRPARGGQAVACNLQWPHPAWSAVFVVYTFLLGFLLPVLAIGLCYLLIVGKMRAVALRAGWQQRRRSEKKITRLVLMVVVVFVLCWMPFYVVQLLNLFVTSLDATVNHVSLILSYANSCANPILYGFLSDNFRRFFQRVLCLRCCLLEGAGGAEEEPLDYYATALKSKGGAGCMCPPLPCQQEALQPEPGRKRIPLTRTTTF

Somatostatin receptor type 3, sequence (P32745 whole entry): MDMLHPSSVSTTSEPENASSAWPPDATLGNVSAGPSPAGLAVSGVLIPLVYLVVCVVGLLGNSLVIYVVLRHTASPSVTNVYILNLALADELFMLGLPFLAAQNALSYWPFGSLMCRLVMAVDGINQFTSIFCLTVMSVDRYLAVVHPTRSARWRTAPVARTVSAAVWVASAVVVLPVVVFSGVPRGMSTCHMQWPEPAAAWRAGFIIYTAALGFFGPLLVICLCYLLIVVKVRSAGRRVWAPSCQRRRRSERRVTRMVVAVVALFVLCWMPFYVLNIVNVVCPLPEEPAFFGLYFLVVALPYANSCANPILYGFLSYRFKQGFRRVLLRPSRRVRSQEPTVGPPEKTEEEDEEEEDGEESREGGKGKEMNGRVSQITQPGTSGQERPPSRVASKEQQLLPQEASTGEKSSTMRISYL
Somatostatin receptor type 2, sequence (P30874 whole entry): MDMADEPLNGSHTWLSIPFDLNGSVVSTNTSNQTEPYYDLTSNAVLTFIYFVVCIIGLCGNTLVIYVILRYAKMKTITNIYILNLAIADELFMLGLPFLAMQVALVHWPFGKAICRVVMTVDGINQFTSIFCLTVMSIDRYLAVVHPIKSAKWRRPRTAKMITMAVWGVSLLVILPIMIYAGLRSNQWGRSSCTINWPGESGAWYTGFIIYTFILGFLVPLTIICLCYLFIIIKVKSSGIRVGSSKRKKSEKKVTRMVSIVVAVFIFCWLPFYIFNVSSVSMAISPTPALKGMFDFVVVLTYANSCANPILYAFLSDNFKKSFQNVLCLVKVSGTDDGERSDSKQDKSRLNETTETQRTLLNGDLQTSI

pKi [1]	pKi [2]	pKi [3]	Structure (SMILES)
9.22	9.00	8.33	C[C@@H](O)[C@@H]1NC(=O)[C@H](Cc2ccc(O)cc2)NC(=O)[C@H]([C@@H](C)O)NC(=O)[C@H](CCCCN)NC(=O)[C@H](Cc2c[nH]c3ccccc23)NC(=O)[C@H](Cc2ccccc2)NC(=O)[C@H](Cc2ccccc2)NC(=O)[C@H](CC(N)=O)NC(=O)[C@H](CCCCN)NC(=O)CCCCC[C@@H](C(=O)O)NC(=O)[C@H](CO)NC1=O [CGP-23996] (HELM PEPTIDE1{K.N.F.F.W.K.T.Y.T.S.[O=C(O)[C@H](CCCCCC(=O)[*:3])N[*:1]]}$PEPTIDE1,PEPTIDE1,1:R1-11:R3$$$V2.0)
6.57			CC(C)[C@@H]1NC(=O)[C@H](CCCCN)NC(=O)[C@@H](Cc2c[nH]c3ccccc23)NC(=O)[C@H](Cc2ccc(O)cc2)NC(=O)[C@H](C)N(C)C(=O)[C@H](Cc2ccccc2)NC1=O [CAS_3086456]
